The values below come from PubChem BioAssay AID2060605 (Molecular Pharmacology Branch, DTP, NCI, 2025).

The test system of this assay is 947758-054-R-J2-PDC spheroid growth, percent test/control. In words: Anticancer human tumor 947758-054-R-J2-PDC patient-derived colon adenocarcinoma cell line growth inhibition [CLK]. As to conditions: spheroids with HUVEC and MSC; for viability, T/C: stronger effect = lower value; for pIC50: curve of compound. The text has this:
A high-throughput screen of multi-cell type tumor spheroids was designed to identify active combinations of […] and targeted small molecules. Complex spheroids include a stromal component modeled by human endothelial cells (HUVEC) and fibroblasts modeled by human mesenchymal stem cells (MSCs). The concentration ranges selected for each drug and investigational agent were based upon clinically achievable concentrations if the clinical Cmax of the agent was known.
Compounds. The drugs and investigational agents: cirtuvivint (SM08502; NSC835563), CC-671 (NSC850746), vemurafenib (NSC761431), tapotoclax (NSC804041), sotorasib (NSC818433), adagrasib (NSC831453), MRTX-1133 (NSC836407), BAY2416964 (NSC825713), copanlisib (NSC816437), inavolisib (NSC800729), abemaciclib (NSC768073), osimertinib (NSC779217), entinostat (NSC756642), eltanexor (KPT-8602, NSC794443), venetoclax (NSC766270), ceralasertib (NSC777638), bortezomib (NSC756655), olaparib (NSC753686), talazoparib (NSC767125), alisertib (NSC759677), peposertib (NSC802822), gemcitabine (NSC613327), 5-fluorouracil (NSC19893), SN-38 (NSC673596), oxaliplatin (NSC266046), paclitaxel (NSC125973), and doxorubicin (NSC123127), were obtained from the National Cancer Institute (NCI) Developmental Therapeutics Program Chemical Repository. The FDA-approved anticancer drug set is available from the Developmental Therapeutics Program at https://dtp.cancer.gov/organization/dscb/obtaining/available plates.htm. […] The stock solutions were prepared in dimethyl sulfoxide (DMSO, Sigma-Aldrich, St. Louis, MO, cat. D2650), except for the platinum complexes which were prepared in saline (Quality Biological, Gaithersburg, MD, cat. 114-055-101), at 800-fold the tested concentration and stored at -70 degrees C prior to their use. All drugs and investigational agents were tested over a range starting from a high concentration at or near the clinical Cmax and decreasing in half-log increments. If the clinical Cmax for an agent had not been determined, the highest concentration tested was 10 microM.
Cell Culture. All cells were maintained in an incubator at 37 degrees C and 5% CO2 with 95% humidity. The PDC lines were cultured according to standard operating procedures established by the NCI PDMR. Briefly, all PDCs were thawed and cultured in Matrigel-coated flasks prepared with a working solution of 1X Ham's F-12 nutrient mix, without supplementation (Invitrogen, Waltham, MA, cat. 11765054), 100 U/mL penicillin-streptomycin (Invitrogen, cat. 15140122), and 2.5% Matrigel (Corning Inc., Corning, NY, cat. 354248) for the first three passages. The 947758-054-R-J2-PDC line was cultured in 6B/Colon 1A media, which includes advanced DMEM/F-12 (Thermo Fisher Scientific, cat. 12634028), 10 mM HEPES (Thermo Fisher Scientific, cat. 15630080), 1X GlutaMAX supplement (Thermo Fisher Scientific, cat. 35050061), 0.1 mg/mL primocin (InvivoGen, cat. ant-pm-2), 10% defined fetal bovine serum, heat inactivated (HyClone Laboratories Inc., cat. SH30070.03HI), 1.25 mM N-Acetyl-L-cysteine (Sigma-Aldrich, cat. A9165), 10 mM nicotinamide (Sigma-Aldrich, cat. N0636), 1X B-27 supplement (Thermo Fisher Scientific, cat. 17504044), 1X N-2 supplement (Thermo Fisher Scientific, cat. 17502048), and 10 microM Y-27632 dihydrochloride (Tocris Bioscience, cat. 1254). The 876862-298-R-J1-PDC was cultured in 6E media, which includes all 6B/Colon 1A media components plus 50% L-WRN conditioned media (ATCC, cat. CRL-3276), 50 ng/mL recombinant human EGF recombinant protein (hEGF; Thermo Fisher Scientific, cat. PHG0311), 10 ng/mL recombinant human fibroblast growth factor 10 (hGFG-10; PeproTech, cat. 100-26), 1 ng/mL recombinant human fibroblast growth factor 2 (hFGF-2; PeproTech, cat. 100-18B), and 1 µM prostaglandin E2 (PGE2; Tocris, cat. 2296). The 227483-062-R1-J1-PDC line was cultured in Panc media, containing all 6E components except hFGF-2, with the addition of 500 nM SB-431542 (Selleckchem, cat. S1067) and 10 nM gastrin (Tocris, cat. 3006). […]

pIC50: −log10 of the molar value. “And” between values parts separate entries of the source, which are not always exact repeats. Equal values may be shown once. Bounds are passed on as bounds.
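Also: spheroids exposed to compounds for one week before readout.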
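For viability, T/C in this document: 100% = DMSO vehicle control wells.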

Usually viability, T/C stands for the result in the treated group divided by that in the control group, in per cent. As a reminder, the pIC50 is −log10 of the IC50, conventionally taken in molar units. As to `C#Cc1c(F)ccc2cc(O)cc(-c3ncc4c(N5CC6CCC(C5)N6)nc(OCC56CCCN5CC(F)C6)nc4c3F)c12` (stereo unspecified), the negative-log IC50 (pIC50) is under 5.00. For the setting “compound 0.0316 µM”, the viability, T/C was 97% and 82.7%. Besides, for the setting “compound 0.1 µM”, the viability, T/C is 90.4% and 83.7%. Also, the viability, T/C (compound 0.316 µM) was 100% and 88%. The viability, T/C (compound 1 µM) was 80% and 85.2%. Also, the viability, T/C (compound 3.16 µM) was 87.3% and 82.6%. For the same molecule, the viability, T/C (compound 10 µM) was 87.5% and 88%.
For `C=C(F)C(=O)N1CCN(c2nc(OCC3CCCN3C)nc3c2CCN(c2cccc4cccc(Cl)c24)C3)CC1CC#N` (stereo unspecified), the negative-log IC50 (pIC50) was 5.18 and 5.19. Further, the viability, T/C (compound 0.0316 µM) was 97% and 92.3%. The viability, T/C (compound 0.1 µM) was 89.9% and 87.2%. Further, for the setting “compound 0.316 µM”, the viability, T/C is 87% and 84%. Further, the viability, T/C (compound 1 µM) is 95.5% and 86.5%. For the same molecule, the viability, T/C (compound 3.16 µM) was 144% and 135%. Also, the viability, T/C (compound 10 µM) was 20% and 21.4%.
Consider `C=CC(=O)N1CCN(c2nc(=O)n(-c3c(C)ccnc3C(C)C)c3nc(-c4c(O)cccc4F)c(F)cc23)C(C)C1` (stereo unspecified), for which the pIC50 is under 5.00. The viability, T/C (compound 0.0316 µM) was 115% and 77.6%. Besides, the viability, T/C (compound 0.1 µM) is 77.8% and 82.6%. Further, the viability, T/C (compound 0.316 µM) was 106% and 101%. Moreover, the viability, T/C (compound 1 µM) was 75.6% and 75%. Also, the viability, T/C (compound 3.16 µM) was 81.2% and 90.3%. Moreover, the viability, T/C (compound 10 µM) was 94.7% and 77.3%.
Consider `C=CC(=O)Nc1cc(Nc2nccc(-c3cn(C)c4ccccc34)n2)c(OC)cc1N(C)CCN(C)C`, for which the pIC50 was under 6.52. Also, the viability, T/C (compound 0.000949 µM) is 85.6% and 108%. Also, the viability, T/C (compound 0.003 µM) is 62.3% and 94.7%. The viability, T/C (compound 0.00949 µM) was 90.8% and 103%. The viability, T/C (compound 0.03 µM) is 94.7% and 69.1%. Moreover, the viability, T/C (compound 0.0949 µM) was 74.3% and 92.2%. Also, the viability, T/C (compound 0.3 µM) was 87.2% and 78.5%.
Regarding `CC(C)CC(NC(=O)C(Cc1ccccc1)NC(=O)c1cnccn1)B(O)O` (stereo unspecified), the pIC50 is 8.80 and 8.81. Also, the viability, T/C (compound 0.000949 µM) is 89.3% and 86%. In addition, the viability, T/C (compound 0.003 µM) is 2.43% and 0.8%. Besides, the viability, T/C (compound 0.00949 µM) was 0.17% and 0.23%. The viability, T/C (compound 0.03 µM) was 0.24% and 0.3%. The viability, T/C (compound 0.0949 µM) was 0.19% and 0.27%. Also, the viability, T/C (compound 0.3 µM) is 0.24% and 0.28%.
On to `CC(CO)NC(=O)c1cc(-c2ccc(Cl)cc2)nn(-c2cnn(C)c2)c1=O` (stereo unspecified), for which the pIC50 was under 5.00. Also, the viability, T/C (compound 0.0316 µM) was 92.8% and 77.6%. Further, the viability, T/C (compound 0.1 µM) is 84.2% and 87.1%. Further, the viability, T/C (compound 0.316 µM) is 94.1% and 107%. The viability, T/C (compound 1 µM) was 97.6% and 75.3%. For the same molecule, the viability, T/C (compound 3.16 µM) is 108% and 92.3%. The viability, T/C (compound 10 µM) was 112% and 114%.
For the molecule `CC(Nc1ccc2c(c1)OCCn1cc(N3C(=O)OCC3C(F)F)nc1-2)C(N)=O` (stereo unspecified), the pIC50 is under 5.00. Further, under “compound 0.0316 µM”, the viability, T/C was 106% and 109%. For the same molecule, the viability, T/C (compound 0.1 µM) is 96.5% and 102%. The viability, T/C (compound 0.316 µM) is 99.4% and 98.8%. Besides, under “compound 1 µM”, the viability, T/C was 93% and 85.2%. For the same molecule, under “compound 3.16 µM”, the viability, T/C was 92.2% and 93.3%. Also, the viability, T/C (compound 10 µM) was 93.6% and 88.5%.
For `CCCS(=O)(=O)Nc1ccc(F)c(C(=O)c2c[nH]c3ncc(-c4ccc(Cl)cc4)cc23)c1F`, the pIC50 is under 5.00. Besides, under “compound 0.0316 µM”, the viability, T/C is 81.8% and 79.5%. Also, the viability, T/C (compound 0.1 µM) was 79.8% and 65%. For the same molecule, where the note is “compound 0.316 µM”, the viability, T/C was 79.4% and 71%. For the same molecule, the viability, T/C (compound 1 µM) is 77.4% and 68.7%. In addition, the viability, T/C (compound 3.16 µM) was 83.3% and 76.3%. Where the note is “compound 10 µM”, the viability, T/C was 80.2% and 70.7%.
